This note sets out measurements from patent US5002933A, “Hexapeptide and medicinal preparation produced from it to treat erosive and ulcerative lesions of gastrointestinal tract” (priority 1987, dated 1991).

Square brackets hold non-standard residues; d marks the D form. Ends that are not written are not given here.

Data set [1] concerns cysteamine-induced duodenal ulcer. Nature of the data set: cysteamine-induced duodenal ulcer, oral administration. The class given is in vivo, rats. As to conditions: for Lesion scoring: given immediately and 6 h after cysteamine, score 0-4, 24 h; for Incidence: ratio of animals with ulcer to survivals; for Ulcer index: severity of lesion + doubled incidence; for Ulcer index reduction, %: versus control group. How it is done:
The efficacy of the proposed hexapeptide has been studied on experimental animals. Vister male rats were used to compare the therapeutic efficacy of the proposed preparation with that of the known preparations.
Duodenal ulcer was induced in experimental animals by subcutaneous administration of cysteamine hydrochloride in a dose of 350 mg per kg body weight (in 0.5 ml of physiological saline). The proposed preparation was given to the rats immediately and in 6 hours following the administration of the provoking agent. The proposed hexapeptide was given into the stomach through a gastric tube in doses of 10 and 100 mcg/kg; the known hexapeptide (U.S. Pat. No. 4,565,705) was given in a dose of 100 mcg/kg (cimetidine in a dose 10 mg/kg) in 0.5 ml of a 3 percent milk (five-fold diluted in physiological saline). Control animals were given 0.5 ml of a 3 percent milk diluted in a 5-fold volume of physiological saline immediately after administration of cysteamine hydrochloride and 6 hours later. The animals were sacrificed by decapitation in 24 hours after administration of cysteamine hydrochloride and the condition of the duodenal mucosa was assessed in them.
The severity of lesion was determined for each group of the rats using the following scoring system: 0--absense of ulceration; 1--erosion; 2--single ulcer; 3--multiple ulcers; 4--perforating ulcer. Besides, the incidence of lesion was determined in each group: the ratio of the animals with ulcer to the total number of survivals by the end of the experiment was determined. A conventional ulcer index (severity of lesion+doubled incidence of affections) was thus derived as the summary involvement index.
The obtained findings were treated statistically using the Student t-criterion (for severity of lesion) and Pirson X^2 criterion (for the incidence). The differences at the level of 95 percent significance were taken as trustworthy (P<0.05).

The test system of data set [2] is indomethacin-induced ulcers of the small intestine. The experiment in a line: indomethacin-induced ulcers of the small intestine. The class given is in vivo, rats. The conditions noted are these: for Average number of ulcers: 30-cm distal small intestine, 24 h after indomethacin 20 mg/kg. How it is done: The proposed hexapeptide was also studied in experiments with indomethacin-induced ulcers of the small intestine. The efficacy of the proposed hexapeptide was compared with that of sulfasalazine. Indomethacin was given to the rats into the stomach through a tube in a dose of 20 mg/kg, in the form of a suspension in 0.5 ml of physiological saline. The proposed hexapeptide or sulfasalazine were given in doses of 100 μg/kg or 200 mg/kg respectively immediately after administration of indomethacin or 6 hours later. Indomethacin was given with 0.5 ml of a 3% milk diluted in 5 volumes of physiological saline. The same amount of the milk solution was given to the control animals. The rats were decapitated in 24 hours after the administration of indomethacin and the number of ulcers on the mucosa of a 30-cm long distal small intestine was counted. […] The average number of ulcers was determined for each group of the animals.
The findings were processed statistically using the Student t-criterion. Differences at the significance level of 95 % were taken as trustworthy (at P<0.05).

A further data set can be described thus: acute toxicity tests. The class given is in vivo.
Data set [3] can be described thus: blood cell composition and haemodynamic indices in the experiments. In kind it is in vivo. As to conditions: in the experiments with the proposed hexapeptide.
The nature of data set [4]: solubility of the hexapeptide powder. In kind it is physicochemical.

The term LD50 denotes the dose at which mortality reaches 50%. High values mean lower toxicity, low ones greater toxicity. Regarding Y[dA]GFLE [proposed hexapeptide], in data set [1] (10 μg/kg per os), the Lesion scoring is given as 1.60; the Incidence turned out to be 0.80; the Ulcer index turned out to be 3.20; the “Ulcer index reduction, %” value was determined as 18%. In data set [1] (100 μg/kg per os), the Lesion scoring was found to be 0.83; the Incidence is recorded as 0.31; the Ulcer index is 1.45; the “Ulcer index reduction, %” value was determined as 63%. The “anti-ulcer activity relative to cimetidine” value in data set [1] (dose comparison, 100 μg/kg versus cimetidine 10 mg/kg, duodenum) is given as 100 times. For the same molecule, the “Average number of ulcers” value in data set [2] (100 μg/kg) is reported as 23.40 ± 5.36. The “decrease of the average number of ulcers in the distal small intestine” value in data set [2] (100 μg/kg, versus control) was 52%. Moreover, the “anti-ulcer activity relative to sulfasalazine” value in data set [2] (dose comparison, 100 μg/kg versus sulfasalazine 200 mg/kg, small intestine) stood at 2000 times. The LD50 in the data set “acute toxicity tests” amounted to 250 mg/kg. Besides, in data set [3], the “changes in the cell composition of the blood” value is recorded as “No changes” and the “changes in the main haemodynamic indices” value is given as “No changes”. Further, the solubility result in data set [4] (distilled water, physiological saline, alcohol) was “readily soluble”. Further, in data set [4] (ether, ethyl actate, benzene, or hexane), the solubility entry is “insoluble”.
For `CN/C(=N/CCSCc1nc[nH]c1C)NC#N` [cimetidine, reference compound], in data set [1] (10 mg/kg per os), the Lesion scoring is listed as 1.00; the Incidence stood at 0.33; the Ulcer index was determined as 1.66; the “Ulcer index reduction, %” value turned out to be 57%.
`O=C(O)c1cc(/N=N/c2ccc(S(=O)(=O)Nc3ccccn3)cc2)ccc1O` [sulfasalazine, reference compound]: in data set [2] (200 mg/kg, versus control), the “decrease of the number of ulcers in the intestine” value is given as 46%. For the same molecule, in data set [2] (sulfasalazine 200 mg/kg), the “Average number of ulcers” value is recorded as 27.50 ± 5.28.
